The target of this test is T1, human progesterone receptor A (Homo sapiens, UniProt P06401).
T1 construct: expressed in transfected cells; host or cells: SK-N-MC human neuroblastoma cells, stably transfected with pRChPR-A-neo and pMMTV-LUC
T1 sequence (P06401 1-769 isoform P06401-2): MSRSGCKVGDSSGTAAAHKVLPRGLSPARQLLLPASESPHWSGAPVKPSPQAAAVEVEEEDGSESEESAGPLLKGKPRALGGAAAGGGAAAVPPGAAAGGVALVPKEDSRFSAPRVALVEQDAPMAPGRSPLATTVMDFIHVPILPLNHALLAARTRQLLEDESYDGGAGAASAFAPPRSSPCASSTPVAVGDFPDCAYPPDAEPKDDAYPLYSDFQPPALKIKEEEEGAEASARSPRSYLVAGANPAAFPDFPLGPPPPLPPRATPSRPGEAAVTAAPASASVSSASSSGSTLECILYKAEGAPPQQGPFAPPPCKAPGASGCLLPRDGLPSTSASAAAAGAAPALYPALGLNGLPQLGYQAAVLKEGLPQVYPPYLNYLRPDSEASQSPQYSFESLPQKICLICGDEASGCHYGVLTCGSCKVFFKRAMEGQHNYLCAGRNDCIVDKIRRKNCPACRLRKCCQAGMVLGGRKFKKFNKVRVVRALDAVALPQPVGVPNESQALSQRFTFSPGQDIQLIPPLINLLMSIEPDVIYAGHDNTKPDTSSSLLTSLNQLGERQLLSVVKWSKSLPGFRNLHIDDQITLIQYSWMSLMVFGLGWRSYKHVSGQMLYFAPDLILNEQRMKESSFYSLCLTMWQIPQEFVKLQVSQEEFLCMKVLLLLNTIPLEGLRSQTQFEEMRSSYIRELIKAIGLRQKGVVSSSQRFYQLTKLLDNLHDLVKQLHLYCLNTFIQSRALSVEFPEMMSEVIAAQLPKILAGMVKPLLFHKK
Kind of test: Progesterone receptor transactivation test in stably transfected SK-N-MC cells (PR-A, MMTV-LUC reporter). In kind it is cell-based. Particulars: 0.1 nmol/l promegestone, 24 hours, read-out: PR-A IC50 (antagonistic potency). As for the experimental part:
Progesterone receptor-antagonistic action in stable transfectants of human neuroblastoma cells (SK-N-MC cells) with the human progesterone A or progesterone B receptor and an MN-LUC reporter construct SK-N-MC cells (human neuroblastoma cells) which have been stably transfected with plasmids expressing the human progesterone receptor B (pRChPR-B-neo) or the human progesterone receptor A (pRChPR-A-neo) and a reporter construct (pMMTV-LUC) were incubated for 24 hours either in the absence (negative control) or in the presence of ascending amounts of the particular test compound (0.01 nmol/l, 0.1 nmol/l, 1 […], 100 nmol/l and […]), in order to determine the agonistic efficacy. As a positive control of the reporter gene induction, the cells were treated with the synthetic gestagen promegestone (0.01 nmol/l, 0.1 nmol/l, 1 nmol/l, 10 nmol/l, 100 nmol/l and […]). To determine the antagonistic activity, the cells were treated with 0.1 nmol/l promegestone and additionally with ascending amounts of the particular test compound (0.01 nmol/l, 0.1 nmol/l, 1 nmol/l, 10 nmol/l, 100 nmol/l and […]). The activity of the reporter gene LUC (LUC=luciferase) was determined in the cell lysates and measured as RLU (relative light units). All measurements are reported as % efficacy and as EC50 and IC50 concentrations.

Structures are written as SMILES.

Usually IC50 stands for the concentration that inhibits the measured activity by half. Regarding `CC(OC(=O)[C@@H](C)NC(=O)OC(C)(C)C)c1ccc([C@H]2C[C@@]3(C)[C@@H](CC[C@@]3(O)C(F)(F)C(F)(F)F)[C@@H]3CCC4=CC(=O)CCC4=C32)cc1` (mixture of isomers) [Example 6, (R)-2-tert-Butoxycarbonylaminopropionic acid (RS)-1-[4-((8S,11R,13S,-14S,17S)-17-hydroxy-13-methyl-3-oxo-17-pentafluoroethyl-2,3,6,7,8,11,12,13,14,15,16,17-dodecahydro-1H-cyclopenta[a]phenanthren-11-yl)phenyl]ethyl ester], the IC50 stood at 0.1 nM.

Take `CC(OC(=O)[C@@H](NC(=O)OC(C)(C)C)C(C)C)c1ccc([C@H]2C[C@@]3(C)C(CC[C@@]3(O)C(F)(F)C(F)(F)F)C3CCC4=CC(=O)CCC4=C32)cc1` (mixture of isomers) [Example 5, (S)-2-tert-Butoxycarbonylamino-3-methylbutyric acid (RS)-1-[4-((8S,11R,-13S,14S,17S)-17-hydroxy-13-methyl-3-oxo-17-pentafluoroethyl-2,3,6,7,8,11,12,13,14,15,-16,17-dodecahydro-1H-cyclopenta[a]phenanthren-11-yl)phenyl]ethyl ester]: the IC50 is 0.3 nM.

As to `CC(=O)O[C@H](C)c1ccc([C@H]2C[C@@]3(C)C(CC[C@@]3(O)C(F)(F)C(F)(F)F)C3CCC4=CC(=O)CCC4=C32)cc1` (mixture of isomers) [Example 1, acetic acid (RS)-1-[4-((8S,11R,13S,14S,17S)-17-hydroxy-13-methyl-3-oxo-17-pentafluoroethyl-2,3,6,7,8,11,12,13,14,15,16,17-dodecahydro-1H-cyclopenta[a]phenanthren-11-yl)phenyl]ethyl ester], the IC50 stood at 0.07 nM.

As for `CC(OC(=O)CC(C)(C)C)c1ccc([C@H]2C[C@@]3(C)C(CC[C@@]3(O)C(F)(F)C(F)(F)F)C3CCC4=CC(=O)CCC4=C32)cc1` (mixture of isomers) [Example 4, 3,3-Dimethylbutyric acid (RS)-1-[4-((8S,11R,13S,14S,17S)-17-hydroxy-13-methyl-3-oxo-17-pentafluoroethyl-2,3,6,7,8,11,12,13,14,15,16,17-dodecahydro-1H-cyclopenta[a]phenanthren-11-yl)phenyl]ethyl ester], the IC50 is 0.2 nM.

`CC(C)CC(=O)OC(C)c1ccc([C@H]2C[C@@]3(C)C(CC[C@@]3(O)C(F)(F)C(F)(F)F)C3CCC4=CC(=O)CCC4=C32)cc1` (mixture of isomers) [Example 3, 3-Methylbutyric acid (RS)-1-[4-((8S,11R,13S,14S,17S)-17-hydroxy-13-methyl-3-oxo-17-pentafluoroethyl-2,3,6,7,8,11,12,13,14,15,16,17-dodecahydro-1H-cyclopenta[a]phenanthren-11-yl)phenyl]ethyl ester]: the IC50 came to 0.21 nM.

For `CC(OC(=O)[C@H](C)NC(=O)OC(C)(C)C)c1ccc([C@H]2C[C@@]3(C)C(CC[C@@]3(O)C(F)(F)C(F)(F)F)C3CCC4=CC(=O)CCC4=C32)cc1` (mixture of isomers) [Example 7, (S)-2-tert-Butoxycarbonylaminopropionic acid (RS)-1-[4-((8S,11R,13S,-14S,17S)-17-hydroxy-13-methyl-3-oxo-17-pentafluoroethyl-2,3,6,7,8,11,12,13,14,15,16,17-dodecahydro-1H-cyclopenta[a]phenanthren-11-yl)phenyl]ethyl ester], the IC50 is 0.14 nM.

Take `CC(C)C(=O)OC(C)c1ccc([C@H]2C[C@@]3(C)C(CC[C@@]3(O)C(F)(F)C(F)(F)F)C3CCC4=CC(=O)CCC4=C32)cc1` (mixture of isomers) [Example 2, Isobutyric acid (RS)-1-[4-((8S,11R,13S,14S,17S)-17-hydroxy-13-methyl-3-oxo-17-pentafluoroethyl-2,3,6,7,8,11,12,13,14,15,16,17-dodecahydro-1H-cyclopenta[a]-phenanthren-11-yl)phenyl]ethyl ester]: the IC50 turned out to be 0.1 nM.
